Patent publication US6737383B1, “Herbicidal oxadiazolidines” (priority 1999, dated 2004)

How the values were obtained:
[1] = tested on: bamyardgrass; assay: Test B flood test barnyardgrass; assay type: in vivo, Echinochloa crus-galli
In short: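 Plants were grown to the 2-leaf stage before treatment with test chemical, then held in a greenhouse for twelve to sixteen days. Injury was visually rated against untreated controls on a 0–10 scale, where 0 is no effect and 10 is complete control.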

[2] = tested on: blackgrass; assay: Test B pre/postemergence blackgrass; assay type: in vivo, Alopecurus myosuroides; conditions: for Blackgrass plant response rating: scale of 0 to 10 where 0 is no effect and 10 is complete control
In short: (§1)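 Herbicidal effect was estimated by eye on a ten-point control scale after plants spent twelve to sixteen days in a greenhouse following soil or foliar treatment. Foliar sprays targeted plants at one to four leaves; all doses were formulated in a non-phytotoxic solvent with surfactant.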

[3] = tested on: sugar beet; assay: Test B pre/postemergence sugar beet; assay type: in vivo, Beta vulgaris; conditions: for Sugarbeets plant response rating: scale of 0 to 10 where 0 is no effect and 10 is complete control
In short: as §1

[4] = tested on: Italian ryegrass; assay: Test E Italian ryegrass; assay type: in vivo, Lolium multiflorum; conditions: Preemergence
[5] = tested on: wild oat; assay: Test E wild oat; assay type: in vivo, Avena fatua; conditions: Preemergence
[6] = tested on: blackgrass; assay: Test E blackgrass; assay type: in vivo, Alopecurus myosuroides; conditions: Preemergence
[7] = tested on: winter wheat; assay: Test E winter wheat; assay type: in vivo, Triticum aestivum; conditions: Postemergence, 0 to 100 scale, 0 is no effect, 100 is complete control
In short: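 Postemergence: spray at 1–4 leaf stage, soil 60:40 sandy loam:potting mix; solvent + surfactant formulation; greenhouse 21–28 d; visual injury vs untreated controls.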

[8] = tested on: surinam grass; assay: Test B pre/postemergence surinam grass; assay type: in vivo, Brachiaria decumbens; conditions: for B. signalgrass plant response rating: scale of 0 to 10 where 0 is no effect and 10 is complete control
In short: as §1

[9] = tested on: winter barley; assay: Test E winter barley; assay type: in vivo, Hordeum vulgare; conditions: Preemergence
[10] = tested on: winter wheat; assay: Test E winter wheat; assay type: in vivo, Triticum aestivum; conditions: Preemergence
[11] = tested on: green foxtail; assay: Test E green foxtail; assay type: in vivo, Setaria viridis; conditions: Preemergence
[12] = Rate 62 g/ha, flood test species, Pre-emergence, visual evaluation after twelve to sixteen days
[13] = Rate 250 g/ha, Pre-emergence, flood-test species, scale 0 to 10, 0 is no effect, 10 is complete control
[14] = Rate 500 g/ha, Pre-emergence, flood test species, scale 0 to 10 (0 no effect, 10 complete control)
[15] = Postemergence, Rate 125 g/ha, scale 0 to 10, 0 is no effect, 10 is complete control
[16] = Postemergence, Rate 250 g/ha, scale 0 to 10, 0 is no effect, 10 is complete control
[17] = Preemergence, Rate 62 g/ha, scale 0 to 10 (0 no effect, 10 complete control)
[18] = Rate 500 g/ha, Postemergence, scale 0 to 10, 0 no effect, 10 complete control
[19] = Rate 125 g/ha, 0 to 100 scale (0 no effect, 100 complete control)
[20] = Rate 500 g/ha, 0 to 100 scale (0 no effect, 100 complete control)
[21] = Rate 250 g/ha, 0 to 100 scale, 0 no effect, 100 complete control

CC1CC1n1c(=O)on(C(=O)N(c2ccccc2)C(C)C)c1=O (centres unmarked) [Compound 370]
Plant response rating, Barnyardgrass ([1]; Postemergence (flood test), Rate 125 g/ha, scale 0 to 10, 0 is no effect, 10 is complete control): 0
Barnyardgrass plant response rating ([1]; Rate 62 g/ha, Postemergence (flood test species), scale of 0 to 10 where 0 is no effect and 10 is complete control): 0
Plant response rating, Barnyardgrass (0 to 10 scale, 0 is no effect, 10 is complete control) [1, 12]: 0
Barnyardgrass plant response rating ([1]; Rate 125 g/ha, Pre-emergence, flood test species, scale 0 to 10 where 0 is no effect and 10 is complete control): 0
Barnyardgrass plant response rating [1, 13]: 0
Plant response rating, Barnyardgrass ([1]; Rate 500 g/ha, listed under Postemergence (flood test species), scale 0 to 10, 0 no effect, 10 complete control): 2
Barnyardgrass plant response rating [1, 14]: 0
Plant response rating, Barnyardgrass ([1]; flood test species, listed under Postemergence, Rate 250 g/ha, scale 0 to 10, 0 is no effect, 10 is complete control): 0
Plant response rating, Blackgrass [2, 15]: 4
Plant response rating, Blackgrass [2, 16]: 4
Plant response rating, Blackgrass [2, 17]: 6
Blackgrass plant response rating (0 to 10 scale) ([2]; Preemergence, Rate 125 g/ha): 8
Blackgrass plant response rating ([2]; Preemergence, Rate 250 g/ha): 9
Blackgrass plant response rating ([2]; Preemergence, Rate 500 g/ha): 10
Blackgrass plant response rating ([2]; Rate 62 g/ha, Postemergence): 2
Plant response rating, Blackgrass [2, 18]: 5
Plant response rating, Sugarbeets [3, 15]: 0
Plant response rating, Sugarbeets [3, 16]: 0
Plant response rating, Sugarbeets [3, 17]: 2
Sugarbeets plant response rating (0 to 10 scale) ([3]; Preemergence, Rate 125 g/ha): 3
Sugarbeets plant response rating ([3]; Preemergence, Rate 250 g/ha): 5
Sugarbeets plant response rating ([3]; Rate 62 g/ha, Postemergence): 0
Plant response rating, Sugarbeets [3, 18]: 0
Plant response rating, I. Ryegrass [4, 19]: 55
Plant response rating, I. Ryegrass ([4]; Rate 250 g/ha, 0 to 100 scale): 85
Plant response rating, I. Ryegrass [4, 20]: 90
Plant response rating, Wild oat [5, 19]: 60
Plant response rating, Wild oat ([5]; Rate 250 g/ha, 0 to 100 scale): 75
Plant response rating, Wild oat [5, 20]: 90
Plant response rating, Blackgrass [6, 19]: 50
Plant response rating, Blackgrass ([6]; Rate 250 g/ha, 0 to 100 scale): 70
Plant response rating, Blackgrass [6, 20]: 100
Plant response rating, Wheat (winter) ([7]; Rate 125 g/ha): 70
Plant response rating, Wheat (winter) ([7]; Rate 250 g/ha): 80
Plant response rating, Wheat (winter) ([7]; Rate 500 g/ha): 85
Plant response rating, B. signalgrass [8, 15]: 2
Plant response rating, B. signalgrass [8, 16]: 4
Plant response rating, B. signalgrass [8, 17]: 0
B. signalgrass plant response rating (0 to 10 scale, 0 is no effect, 10 is complete control) ([8]; Preemergence, Rate 125 g/ha): 0
B. signalgrass plant response rating ([8]; Preemergence, Rate 250 g/ha): 2
B. signalgrass plant response rating ([8]; Preemergence, Rate 500 g/ha): 5
B. signalgrass plant response rating ([8]; Rate 62 g/ha, Postemergence): 0
Plant response rating, B. signalgrass [8, 18]: 6
Plant response rating, Barley (winter) [9, 19]: 60
Plant response rating, Barley (winter) [9, 21]: 60
Plant response rating, Barley (winter) [9, 20]: 70
Plant response rating, Wheat (winter) [10, 19]: 50
Plant response rating, Wheat (winter) ([10]; Rate 250 g/ha, 0 to 100 scale): 40
Plant response rating, Wheat (winter) [10, 20]: 60
Plant response rating, Green foxtail [11, 19]: 70
Plant response rating, Green foxtail ([11]; Rate 250 g/ha, 0 to 100 scale): 100
Plant response rating, Green foxtail [11, 20]: 100

CC1CC1n1c(=O)on(C(=O)N(c2ccc(F)cc2)C(C)C)c1=O (centres unmarked) [Compound 371]
Plant response rating, Barnyardgrass (0 to 10 scale, 0 is no effect, 10 is complete control) [1, 12]: 0
Barnyardgrass plant response rating (0 to 10 scale, 0 is no effect, 10 is complete control) ([1]; Rate 125 g/ha, under heading Pre-emergence, flood test species, visual evaluation after twelve to sixteen days): 0
Barnyardgrass plant response rating [1, 13]: 0
Barnyardgrass plant response rating [1, 14]: 7
Plant response rating, Blackgrass [2, 15]: 2
Plant response rating, Blackgrass [2, 16]: 6
Plant response rating, Blackgrass [2, 17]: 5
Blackgrass plant response rating (0 to 10 scale) ([2]; Preemergence, Rate 125 g/ha): 9
Blackgrass plant response rating ([2]; Preemergence, Rate 250 g/ha): 10
Blackgrass plant response rating ([2]; Preemergence, Rate 500 g/ha): 10
Blackgrass plant response rating ([2]; Rate 62 g/ha, Postemergence): 2
Plant response rating, Blackgrass [2, 18]: 8
Plant response rating, Sugarbeets [3, 15]: 0
Plant response rating, Sugarbeets [3, 16]: 0
Plant response rating, Sugarbeets [3, 17]: 0
Sugarbeets plant response rating (0 to 10 scale) ([3]; Preemergence, Rate 125 g/ha): 6
Sugarbeets plant response rating ([3]; Preemergence, Rate 250 g/ha): 6
Sugarbeets plant response rating ([3]; Preemergence, Rate 500 g/ha): 10
Sugarbeets plant response rating ([3]; Rate 62 g/ha, Postemergence): 0
Plant response rating, Sugarbeets [3, 18]: 0
Plant response rating, I. Ryegrass [4, 19]: 60
Plant response rating, I. Ryegrass ([4]; Rate 250 g/ha, 0 to 100 scale): 70
Plant response rating, I. Ryegrass [4, 20]: 90
Plant response rating, Wild oat [5, 19]: 70
Plant response rating, Wild oat ([5]; Rate 250 g/ha, 0 to 100 scale): 85
Plant response rating, Wild oat [5, 20]: 90
Plant response rating, Blackgrass [6, 19]: 85
Plant response rating, Blackgrass ([6]; Rate 250 g/ha, 0 to 100 scale): 100
Plant response rating, Blackgrass [6, 20]: 100
Plant response rating, Wheat (winter) ([7]; Rate 125 g/ha): 70
Plant response rating, Wheat (winter) ([7]; Rate 250 g/ha): 65
Plant response rating, Wheat (winter) ([7]; Rate 500 g/ha): 80
Plant response rating, B. signalgrass [8, 15]: 0
Plant response rating, B. signalgrass [8, 16]: 3
Plant response rating, B. signalgrass [8, 17]: 0
B. signalgrass plant response rating (0 to 10 scale, 0 is no effect, 10 is complete control) ([8]; Preemergence, Rate 125 g/ha): 2
B. signalgrass plant response rating ([8]; Preemergence, Rate 250 g/ha): 2
B. signalgrass plant response rating ([8]; Preemergence, Rate 500 g/ha): 4
B. signalgrass plant response rating ([8]; Rate 62 g/ha, Postemergence): 0
Plant response rating, B. signalgrass [8, 18]: 6
Plant response rating, Barley (winter) [9, 19]: 40
Plant response rating, Barley (winter) [9, 21]: 60
Plant response rating, Barley (winter) [9, 20]: 70
Plant response rating, Wheat (winter) [10, 19]: 60
Plant response rating, Wheat (winter) ([10]; Rate 250 g/ha, 0 to 100 scale): 60
Plant response rating, Wheat (winter) [10, 20]: 65
Plant response rating, Green foxtail [11, 19]: 35
Plant response rating, Green foxtail ([11]; Rate 250 g/ha, 0 to 100 scale): 60
Plant response rating, Green foxtail [11, 20]: 85
